Assays:
[1] = Solubility screen of the free acid in various solvents (incremental solvent addition, visual); assay type: physicochemical; conditions: Ca. 10 mg free acid
Source text: The free base (or zwitterionic) Compound 1 can be dissolved in unbuffered water, a range of organic solvents, mixtures of organic solvents and mixtures of solvents with unbuffered water. The solvents assessed were 1,1-dimethoxyethane, acetonitrile, ethanol, 1,2-dichloroethane, benzonitrile, ethyl acetate, 1,4-dioxane, anisole, heptane, 2-butanol, cumene, hexane, 2-propanol, cyclohexane, isopropyl acetate, 4-methyl-pentan-2-one, dichloromethane, methanol, acetone, diisopropyl ether (DIPE), isobutyl acetate, tetralin, toluene, methylethyl ketone, N-methylpyrrolidone, tert-butylmethyl ether, nitromethane, pyridine, tetrahydrofuran.
Ca. 10 mg of the free acid of Compound 1 was weighed into 2 mL HPLC vials prior to the addition of solvent in 100-250 μL increments up to a maximum of 1750 μL. After each addition of solvent the samples were briefly shaken to encourage dissolution and visually inspected for signs of any remaining solid. Once the maximum volume of solvent had been added, 1.1 eq of 1M NaOH(aq) solution was also added, to give an indication as to which of the solvents would yield a suitable salt form. The samples were visually inspected prior to maturation for 2 days, after which all were inspected again. All the samples were then left to evaporate at RT to generate solid material.

[2] = Aqueous solubility assessment of salt screen solids (visual); conditions: Ca. 5 mg in up to 4000 μL water (1.25 mg/ml), shaken overnight at 50° C.; for Solubility assessment (dissolution in deionized water), salt from MIBK: salt prepared from MIBK; for Solubility assessment (dissolution in deionized water), salt from DIPE: salt prepared from DIPE; for Solubility assessment (dissolution in deionized water), salt From Ethanol: salt prepared from ethanol
Procedure: Aqueous solubility assessment was performed using Ca. […] These samples were added to aliquots of deionized water up to a maximum of 4000 μL with the samples being shaken between additions to encourage dissolution prior to a visual inspection.

[3] = Stability at 40° C./75% RH; assay type: physicochemical; conditions: for Chemical purity post stability (40° C./75% RH): HPLC
[4] = Aqueous solubility, 24 h shake, gravimetric; assay type: physicochemical; conditions: thermodynamic from solid, deionized water
Procedure: Ca. 50 mg of each of the salts were weighed into a 2 mL HPLC vial prior to the addition of 1 mL of deionized water. […] The experiment was also repeated at 50° C.

[5] = FaSSIF/FeSSIF solubility; assay type: physicochemical; conditions: thermodynamic from solid, shaken 24 h at 37° C.
Procedure: Ca. 25 mg of each of the salts were weighed into a 2 mL HPLC vial prior to the addition of 1 mL of Fasting State Simulated Intenstinal Fluid (FaSSIS) solution. […] The experiment was also repeated using Fed State Simulated Intestinal Fluid (FeSSIF) solution.

[6] = pH of saturated solution; assay type: physicochemical; conditions: saturated solution in deionized water, room temperature
Procedure: A saturated solution of each of the salts was prepared in 5 mL of deionized water at room temperature prior to analysis.

[7] = Dynamic vapor sorption (DVS); assay type: physicochemical; conditions: for XRPD post DVS: after double cycle 0-90% RH
Procedure: SMS DVS Intrinsic dynamic vapour sorption instrument using DVS-Intrinsic control software v1.0.6.0. Analysis of the data was performed using the DVS analysis suite v7.0.13.1 macro program embedded in Microsoft Excel. Analysis was performed as a wt % change from 0-90% RH with isothermal plots also being examined.
Ca. 10-15 mg of sample was weighed into a stainless steel DVS basket before submitting for analysis. The samples were analysed over the range of 0-90% RH with a maximum time of 6 hours per humidity stage. Each sample was exposed to a double cycle. XRPD analysis of all samples was performed post-DVS.

[8] = pH1 stability; assay type: physicochemical; conditions: pH 1 buffer, 4 h at 37° C.; for Chemical purity post stability (pH 1 for 4 h): HPLC; for 1H NMR post stability (pH 1 for 4 h): cell continues: salt form is no longer present
Procedure: Ca. 25 mg of each of the salts were weighed into a 2 mL HPLC vial prior to the addition of 1 mL of pH 1 buffer. The samples were then shaken for 4 h at 37° C. before being filtered into SPE cartridges and dried overnight.

Q: What does the source list for `O=C(CSc1ccc(Br)cc1)Nc1cn(CCc2ccccc2)nc1C(=O)O` [Compound 1, 4-(2-((4-bromophenyl)thio)acetamido)-1-phenethyl-1H-pyrazole-3-carboxylic acid]?
A: Solvent Addition ([1]; solvent 1,1-Dimethoxyethane, increments up to maximum 1750 μL): 1750 µL; Solvent Addition ([1]; solvent 1,2-Dichloroethane, maximum 1750 μL): 1750 µL; Solvent Addition ([1]; solvent 1,4-Dioxane, maximum 1750 μL): 750 µL; Solvent Addition ([1]; solvent 2-Butanol, maximum 1750 μL): 1750 µL; Solvent Addition ([1]; solvent 2-Propanol, maximum 1750 μL): 1750 µL; Solvent Addition ([1]; solvent 4-methyl-pentan-2-one, maximum 1750 μL): 1750 µL; Solvent Addition ([1]; solvent Acetone, maximum 1750 μL): 1750 µL; Solvent Addition ([1]; solvent Acetonitrile, maximum 1750 μL): 1750 µL; Solvent Addition ([1]; solvent Anisole, maximum 1750 μL): 1750 µL; Solvent Addition ([1]; solvent Benzonitrile, maximum 1750 μL): 1750 µL; Solvent Addition ([1]; solvent Cumene, maximum 1750 μL): 1750 µL; Solvent Addition ([1]; solvent Cyclohexane, maximum 1750 μL): 1750 µL; Solvent Addition ([1]; solvent Dichloromethane, maximum 1750 μL): 1750 µL; Solvent Addition ([1]; solvent Diisopropyl ether, maximum 1750 μL): 1750 µL; Solvent Addition ([1]; solvent Ethanol, maximum 1750 μL): 1750 µL; Solvent Addition ([1]; solvent Ethyl acetate, maximum 1750 μL): 1750 µL; Solvent Addition ([1]; solvent Heptane, maximum 1750 μL): 1750 µL; Solvent Addition ([1]; solvent Hexane, maximum 1750 μL): 1750 µL; Solvent Addition ([1]; solvent Isobutyl Acetate, maximum 1750 μL): 1750 µL; Solvent Addition ([1]; solvent Isopropyl acetate, maximum 1750 μL): 1750 µL; Solvent Addition ([1]; solvent Methanol, maximum 1750 μL): 1750 µL; Solvent Addition ([1]; solvent Methylethyl ketone, maximum 1750 μL): 1750 µL; Solvent Addition ([1]; solvent N-Methylpyrrolidone, maximum 1750 μL): 250 µL; Solvent Addition ([1]; solvent Nitromethane, maximum 1750 μL): 1750 µL; Solvent Addition ([1]; solvent Pyridine, maximum 1750 μL): 1750 µL; Solvent Addition ([1]; solvent Tetrahydrofuran, maximum 1750 μL): 750 µL; Solvent Addition ([1]; solvent Tetralin, maximum 1750 μL): 1750 µL; Solvent Addition ([1]; solvent Toluene, maximum 1750 μL): 1750 µL; Solvent Addition ([1]; solvent Water, maximum 1750 μL): 1750 µL; Solvent Addition ([1]; solvent tert-Butylmethyl ether, maximum 1750 μL): 1750 µL

Q: For `O=C(CSc1ccc(Br)cc1)Nc1cn(CCc2ccccc2)nc1C(=O)O.c1ccc(CNCCNCc2ccccc2)cc1` [N,N′-Dibenzylethylenediamine, salt of 4-(2-((4-bromophenyl)thio)acetamido)-1-phenethyl-1H-pyrazole-3-carboxylic acid and N,N′-dibenzylethylenediamine], which “Solubility assessment (dissolution in deionized water), salt from MIBK” value [2] is on record?
A: No dissolution

Q: Which “Solubility assessment (dissolution in deionized water), salt from DIPE” value [2] does the source give for `CCNC[C@H](O)[C@@H](O)[C@H](O)[C@H](O)CO.O=C(CSc1ccc(Br)cc1)Nc1cn(CCc2ccccc2)nc1C(=O)O` [N-Ethylglucamine, salt of 4-(2-((4-bromophenyl)thio)acetamido)-1-phenethyl-1H-pyrazole-3-carboxylic acid and N-ethylglucamine] here?
A: Partial

Q: And the “Solubility assessment (dissolution in deionized water), salt From Ethanol” value (shortened to “Solubility assessment … salt From Ethanol”) [2]?
A: Partial

Q: For `CNC[C@H](O)[C@@H](O)[C@H](O)[C@H](O)CO.O=C(CSc1ccc(Br)cc1)Nc1cn(CCc2ccccc2)nc1C(=O)O` [N-Methylglucamine, salt of 4-(2-((4-bromophenyl)thio)acetamido)-1-phenethyl-1H-pyrazole-3-carboxylic acid and N-methylglucamine], which “Solubility assessment … salt From Ethanol” value [2] is on record?
A: Partial

Q: What does the source list for `O=C(CSc1ccc(Br)cc1)Nc1cn(CCc2ccccc2)nc1C(=O)[O-].[K+]` [potassium salt, 4-(2-((4-bromophenyl)thio)acetamido)-1-phenethyl-1H-pyrazole-3-carboxylic acid potassium salt]?
A: Observation post stability (40° C./75% RH) [3]: No visible change; XRPD post stability (40° C./75% RH) [3]: Partially crystalline-no change in form; Chemical purity post stability (40° C./75% RH) [3]: >99.9% (by peak area); solubility at 24 h ([4]; shaken 24 h at 25° C., read-out: Aqueous solubility @ 25° C.): 6600 µg/mL; solubility at 24 h ([4]; shaken 24 h at 50° C.): 16200 µg/mL; solubility at 24 h ([5]; FaSSIF, read-out: FaSSIF solubility @ 37° C.): 1500 µg/mL; solubility at 24 h ([5]; FeSSIF, read-out: FeSSIF solubility @ 37° C.): 1600 µg/mL; pH of rm temp sat'd sol'n [6]: 9.21; DVS mass increase between 0-90% RH, first cycle ([7]; 0-90% RH): Ca. 5.7% mass increase between 0-90% RH on the first cycle; XRPD post DVS [7]: Partially crystalline-pattern is different from free acid indicating; Solubility assessment (dissolution in deionized water), salt from DIPE [2]: Complete; Solubility assessment (dissolution in deionized water), salt from MIBK [2]: Partial; Solubility assessment (dissolution in deionized water), salt From Ethanol [2]: Complete; Observations post stability (pH 1 for 4 h) [8]: No visual change; XRPD post stability (pH 1 for 4 h) [8]: Partially crystalline: change in crystalline form compared to the; Chemical purity post stability (pH 1 for 4 h) [8]: >99.9% (by peak area); 1H NMR post stability (pH 1 for 4 h) [8]: Reduction in chemical shifts, indicating that salt form is no

Q: For “salt of 4-(2-((4-bromophenyl)thio)acetamido)-1-phenethyl-1H-pyrazole-3-carboxylic acid and N-(phenylmethyl)benzeneethaneamine [N-(Phenylmethyl) benzeneethaneamine]”, which “Solubility assessment (dissolution in deionized water), salt from DIPE” value [2] is on record?
A: No dissolution

Q: What about the “Solubility assessment … salt From Ethanol” value [2] of the same compound?
A: No dissolution

Q: For “salt of 4-(2-((4-bromophenyl)thio)acetamido)-1-phenethyl-1H-pyrazole-3-carboxylic acid and calcium acetate”, which “Solubility assessment … salt From Ethanol” value [2] is on record?
A: No dissolution

Q: For “salt of 4-(2-((4-bromophenyl)thio)acetamido)-1-phenethyl-1H-pyrazole-3-carboxylic acid and diethylamine [diethylamine salt]”, which “Observation post stability (40° C./75% RH)” value [3] is on record?
A: No visible change

Q: And the “XRPD post stability (40° C./75% RH)” value [3]?
A: Crystalline-no change in form

Q: What about the “Chemical purity post stability (40° C./75% RH)” value [3] of the same compound?
A: >99.9% (by peak area)

Q: What about the “DVS mass increase between 0-90% RH, first cycle” value ([7]; 0-90% RH) of the same compound?
A: Ca. 0.1% mass increase between 0-90% RH on the first cycle

Q: And the “DVS mass increase between 0-90% RH, second cycle” value ([7]; 0-90% RH, second cycle)?
A: Ca. 0.1% mass increase between 0-90% RH on the first cycle

Q: And the “XRPD post DVS” value [7]?
A: Crystalline-no change in form

Q: And the “Observations post stability (pH 1 for 4 h)” value [8]?
A: No visual change

Q: What about the “Chemical purity post stability (pH 1 for 4 h)” value [8] of the same compound?
A: >99.9% (by peak area)

Q: And the “1H NMR post stability (pH 1 for 4 h)” value [8]?
A: Reduction in chemical shifts, indicating that salt form is no

Q: For “salt of 4-(2-((4-bromophenyl)thio)acetamido)-1-phenethyl-1H-pyrazole-3-carboxylic acid and magnesium acetate”, which “Solubility assessment … salt From Ethanol” value [2] is on record?
A: No dissolution

Q: For “salt of 4-(2-((4-bromophenyl)thio)acetamido)-1-phenethyl-1H-pyrazole-3-carboxylic acid and tromethamine”, which “Solubility assessment … salt From Ethanol” value [2] is on record?
A: No dissolution
